Source: PubChem BioAssay (NCI)
Several values for one entry are separate records, joined by “and”; a condition that tells them apart may be missing. Equal values may be shown once.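 96-well plates; 48 h exposure; 5 concentrations. Endpoints by linear interpolation between flanking doses. Not reached: highest tested concentration assigned. GI50: concentration for 50% inhibition of growth. TGI: concentration producing complete growth inhibition.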

Columns and labels:
Test in all cases: NCI tumour cell line growth inhibition, 48 h
CAKI-1 renal = test system: CAKI-1 renal
HOP-62 NSCLC = test system: HOP-62 NSCLC
KM12 colon = test system: KM12 colon
LOX IMVI melanoma = test system: LOX IMVI melanoma
OVCAR-3 ovarian = test system: OVCAR-3 ovarian
RXF 393 renal = test system: RXF 393 renal
SF-268 CNS = test system: SF-268 CNS
SNB-19 CNS = test system: SNB-19 CNS
U251 CNS = test system: U251 CNS
UACC-62 melanoma = test system: UACC-62 melanoma

| Structure (SMILES) | GI50 (CAKI-1 renal) | TGI (CAKI-1 renal) | GI50 (HOP-62 NSCLC) | TGI (HOP-62 NSCLC) | GI50 (KM12 colon) [µM] | TGI (KM12 colon) | GI50 (LOX IMVI melanoma) | TGI (LOX IMVI melanoma) | GI50 (OVCAR-3 ovarian) | TGI (OVCAR-3 ovarian) | GI50 (RXF 393 renal) [µM] | TGI (RXF 393 renal) | GI50 (SF-268 CNS) | TGI (SF-268 CNS) | GI50 (SNB-19 CNS) [µM] | TGI (SNB-19 CNS) | GI50 (U251 CNS) [µM] | TGI (U251 CNS) | GI50 (UACC-62 melanoma) | TGI (UACC-62 melanoma) |
| --- | --- | --- | --- | --- | --- | --- | --- | --- | --- | --- | --- | --- | --- | --- | --- | --- | --- | --- | --- | --- |
| CC(C)=Cc1cc(C)c2ccc(C)c3c2c1C(C)=C(O)C3=O | 23.8 µM | 65.9 µM | 28.4 µM | 61.7 µM | 29.8 | > 100 µM | 69.3 µM | > 100 µM | 15.6 µM | 49.2 µM | 41.9 | > 100 µM | 0.0856 µM | > 100 µM | 23.1 | 75.6 µM | 17.9 | 56.4 µM | 19.8 µM | 46.7 µM |
| CC(/C=C/C(=O)c1sc(C(N)=S)nc1C)=C\c1ccccc1 | – | 56.4 µM | – | > 100 µM | – | > 100 µM | – | 40.2 µM | – | > 100 µM | – | > 100 µM | – | > 100 µM | – | 31.2 µM | – | > 100 µM | – | > 100 µM |
| O=C1C(Cl)=C(Cl)C(=O)N1c1ccc(Cl)c(Cl)c1Cl | – | 56.2 µM | – | > 100 µM | – | > 100 µM | – | > 100 µM | – | > 100 µM | – | – | – | > 100 µM | – | > 100 µM | – | > 100 µM | – | > 100 µM |
| O=C1NC(=O)C(=Cc2cn(Cc3ccccc3)c3ccccc23)C(=O)N1 | 2.15 µM | 10.5 µM | 15.2 µM | 37.7 µM | 15.9 | 31.5 µM | 14.1 µM | 33.1 µM | 5.75 µM | 19.4 µM | 11.6 | 48.3 µM | 15.8 µM | 32.9 µM | 16.2 | 38.9 µM | 12.8 | 28.9 µM | 2.07 µM | 15.7 µM |
| COC(=O)/C(C#N)=C1\CCC(OC)N1C (centres undefined) | – | > 100 µM | – | > 100 µM | – | > 100 µM | – | > 100 µM | – | > 100 µM | – | > 100 µM | – | > 100 µM | – | > 100 µM | – | > 100 µM | – | > 100 µM |
| Cc1ccc(SSCC(O)C(O)CSSc2ccc(C)cc2)cc1 (centres undefined) | 4.04 µM and 13.2 µM | 15.4 µM and 27 µM | 12.5 µM and 3.81 µM | 26.6 µM and 9.98 µM | – | 21.2 µM and 23.8 µM | – | 2.78 µM and 4.21 µM | 6.31 µM and 13.9 µM | 18.4 µM and 27 µM | – | 16.9 µM and 16.1 µM | 4.6 µM and 10.4 µM | 19.1 µM and 29.2 µM | – | 31.5 µM and 31.7 µM | – | 10.9 µM and 12 µM | 4.81 µM and 15.8 µM | 17.2 µM and 31 µM |
| COC(=O)c1onc(C2OC(C)(C)OC2C(O)COC(c2ccccc2)(c2ccccc2)c2ccccc2)c1C(=O)OC (centres undefined) | – | – | – | > 100 µM | – | > 100 µM | – | – | – | > 100 µM | – | > 100 µM | – | > 100 µM | – | > 100 µM | – | > 100 µM | – | > 100 µM |
| Cc1ccc2oc(=O)c3c(O)c4cccc(OC5OC(C)C6O[C@@H](c7ccccc7)OC6C5OC5OC(C)C(O)C(O)C5O)c4c4oc(=O)c1c2c34 (some centres undefined) | 0.0415 µM | – | 0.105 µM | 1.6 µM and 0.734 µM | 0.0486 | 1.43 µM and 1.92 µM | 0.0293 µM and 0.0483 µM | 0.538 µM and 1.51 µM | – | 3.96 µM | – | 0.763 µM | – | 1.59 µM and 1.71 µM | 0.0266 | – | 0.0825 | 1.16 µM and 1.58 µM | – | 0.444 µM and 0.432 µM |
| CC(C)=Cc1cc(CCC/C(C)=C/Cc2c(O)cc(C)c(C(=O)O)c2O)co1 | – | > 100 µM | – | > 100 µM | – | > 100 µM | – | > 100 µM | – | > 100 µM | – | – | – | > 100 µM | – | > 100 µM | – | > 100 µM | – | > 100 µM |
| COc1cc2c(cc1OC)C(C(CBr)CBr)N(C1CCCC1)CC2 (centres undefined) | – | > 100 µM | – | > 100 µM | – | > 100 µM | – | > 100 µM | – | > 100 µM | – | > 100 µM | – | > 100 µM | – | > 100 µM | – | > 100 µM | – | > 100 µM |
| CCCCCCC(=O)C/C(CCC(=O)N(Cc1ccccc1)Cc1ccccc1)=N\NC(N)=O | – | > 100 µM | – | > 100 µM | – | > 100 µM | – | > 100 µM | – | > 100 µM | – | > 100 µM | – | > 100 µM | – | > 100 µM | – | > 100 µM | – | > 100 µM |
| CCc1ccc2oc(=O)ccc2c1 | – | > 100 µM | – | > 100 µM | – | > 100 µM | – | > 100 µM | – | > 100 µM | – | > 100 µM | – | > 100 µM | – | > 100 µM | – | > 100 µM | – | > 100 µM |
| CCC[CH2][Sn]([CH2]CCC)([CH2]CCC)/[C](=C/[Si](C)(C)c1ccccc1)c1ccc2c(c1)OCO2 | 16 µM | 48.2 µM | 23.7 µM | 50.6 µM | 16.2 | 34.1 µM | 21.3 µM | 66.7 µM | 19.8 µM | 40.2 µM | 22.1 | 41.2 µM | 10.7 µM | 98.4 µM | 21.3 | 49.7 µM | 18.8 | 40 µM | – | – |
| O=c1c2ccccc2oc2ccccc12 (tested in a mixture with another compound) | – | > 100 µM | – | > 100 µM | – | > 100 µM | – | 17 µM | – | > 100 µM | – | – | – | > 100 µM | – | > 100 µM | – | – | – | > 100 µM |
| C1CSC[C@H]2COC[C@@H](CSCCS1)S2 | – | – | – | > 100 µM | – | > 100 µM | – | > 100 µM | – | > 100 µM | – | – | – | > 100 µM | – | > 100 µM | – | > 100 µM | – | – |
| O=C1OCC2=C1C(c1cccc(C(F)(F)F)c1)c1cc3c(cc1N2CCO)OCCO3 (centres undefined) | 1.15 µM | > 33.3 µM | 1.31 µM | > 33.3 µM | 1.08 | > 33.3 µM | 1.66 µM | > 33.3 µM | 1.24 µM | > 33.3 µM | – | – | 2.54 µM | > 33.3 µM | 1.63 | > 33.3 µM | 1.36 | > 33.3 µM | 0.901 µM | > 33.3 µM |
| CN1CCN(C(=O)c2ccc(NC(=O)Nc3ccc(-c4nc(N5CCOCC5)c5cccn5n4)cc3)cc2)CC1 | 0.542 µM | 10.7 µM | 0.025 µM | 0.232 µM | 0.0787 | 13.7 µM | 0.0206 µM | 1.74 µM | – | – | 0.0307 | 0.175 µM | 0.0399 µM | 12 µM | 0.0363 | 11.1 µM | 0.0464 | 10.3 µM | 0.034 µM | 0.189 µM |
